Tests used:
relapsed/refractory HL = settings: cited from earlier work
[1] = 3 patients did not have data at 3 months
[2] = AE of special interest, classical HL patients
[3] = Grade 3 or higher AE, classical HL patients
[4] = not resolved by Day 28, classical HL patients
[5] = 9 patients evaluated at 6 weeks after infusion

Molecule: Cn1c(CCCC(=O)O)nc2cc(N(CCCl)CCCl)ccc21 [Benda]
- Prolonged Grade 3/4 Anemia (at month 3): n [1]: 0
- Prolonged Grade 3/4 Neutropenia (at month 3): n [1]: 0
- Prolonged Grade 3/4 Thrombocytopenia (at month 3): n [1]: 0
- Cytokine Release Syndrome (all Grade 1): % [2]: (13) %
- Cytokine Release Syndrome (all Grade 1): n [2]: 1
- Anemia: n [3]: 0
- Dyspnea: n [3]: 0
- Headache: n [3]: 0
- Hypoalbuminemia: n [3]: 0
- Hyponatremia: n [3]: 0
- Leukopenia: % [3]: (38) %
- Leukopenia: n [3]: 3
- Lung Infection: n [3]: 0
- Lymphopenia: % [3]: (100) %
- Lymphopenia: n [3]: 8
- Neutropenia: % [3]: (25) %
- Neutropenia: n [3]: 2
- Pharyngitis: n [3]: 0
- Rash: n [3]: 0
- Thrombocytopenia: % [3]: (13) %
- Thrombocytopenia: n [3]: 1
- Grade 3/4 Anemia at day 28: n (classical HL patients): 0
- Rash (Any Grade): % (classical HL patients): (25) %
- Rash (Any Grade): n (classical HL patients, maculopapular skin rash): 2
- Grade 3/4 Neutropenia at day 28: n [4]: 0
- Grade 3/4 Thrombocytopenia at day 28: n [4]: 0

Molecule: cyclophosphamide and fludarabine
- CR (relapsed/refractory HL; [5]): 66.6%
- ORR (relapsed/refractory HL; [5]): 66.6%
- PD (relapsed/refractory HL; [5]): 33.3%
- disease progression: patients (relapsed/refractory HL; out of 9 patients evaluated at 6 weeks after infusion): 3
- CR: patients (relapsed/refractory HL; out of 9 patients evaluated at 6 weeks after infusion, cyclophosphamide 500 mg/m^2 and fludarabine 30 mg/m^2 daily for 3 days): 6

From US12685773B2 (priority 2020, dated 2026)
